One compound from patent US20240335395A1, “COMPOSITIONS AND METHODS FOR PREVENTING AND/OR TREATING DISEASE ASSOCIATED WITH IL-23 EXPRESSION” (ALLSPIM, priority 2021, published 2024) can be followed below.

For one test, the system named is IL-23. The experiment in a line: IL-23 protein in culture supernatant of RA-patient synovial cells. The test is classed as cell-based, human. Conditions: increasing concentrations.
In test [1] the test system is Balb/c to C57BL/6 skin graft. The experiment in a line: Balb/c to C57BL/6 full-thickness skin graft survival. Type of test: in vivo, mouse. Conditions: oral, bid. The protocol:
Skin transplantation. Murine full-thickness allo-skin transplantation to study graft rejection was conducted according to a previously well-described protocol (Cheng et al, 2017). All procedures were conducted in accordance with the Guide for the Care and Use of Laboratory Animals of the National Institute of Health (NIH) and were approved by the animal ethics committee of Guangzhou University of Chinese Medicine.
Briefly, donor mice (Balb/c) were anesthetized with isoflurane (induction vaporizer at 4%, maintenance at 1-2% through the mouse cone). The toe pinch withdrawal reflex was used to monitor the depth of anesthesia. The back of the animal was shaved with an electric razor and disinfected with 10% povidone iodine. Using sterile scissors, gloves, and aseptic technique, donor back skin was harvested from the hip to the neck with blunt dissection at the level of the areolar connective tissue. After harvesting the skin graft, the animal was euthanized by cervical dislocation. Under a microscope, the connective tissue, fat tissue, and panniculus carnosus were separated from the back skin using fine tenotomy scissors. Using sterile technique, 15-mm×15-mm grafts were cut out from the back skin for a 10-mm×10-mm to 15-mm×15-mm graft bed (10 grafts were obtained from one donor mouse). The grafts were stored on gauze soaked with sterile phosphate-buffered saline (PBS) in a petri dish on ice.
The recipient mice (C57BL/6) were anesthetized with isoflurane. Buprenorphine (0.02 mg/kg) was administrated for postoperative pain relief. The side of the back of the animal where the graft will be inserted was shaved and disinfected with 10% povidone iodine. A 10-mm×10-mm to 15-mm×15-mm square of skin was intersected using scissors. The defect size was slightly larger (10%) than the graft. The graft was positioned on the graft bed avoiding folds along the edges. Eight sutures were placed on the corners and on the middle of each edge. […] When the graft was considered as successful, it was then monitored daily for signs of rejection. […]

The subject of another test is IL-1β, IL6 and TNFalpha. The test can be described thus: Endometriosis mouse model, cytokines in cell-free peritoneal lavage (ELISA). The test is classed as in vivo. Conditions: 50 mg/kg/day, 5 times a week, 6 weeks. As to the method: Experimental design. Balb/C female mice (10 weeks old) were habituated for 3 days to take a jelly containing (group EDT+2,4D) or not (groups No EDT and EDT+Vehicle) the compound. Surgical implantation of endometrial tissue from syngenic female in peritoneum, was performed at day 0 for groups EDT+Vehicle and EDT+2,4D. […] The vehicle or treatment was then given 5 times a week (50 mg/kg/day) during 6 weeks. Mice were then sacrificed and the peritoneal inflammation was assessed. All the details of the protocol are depicted in FIG. 27. Cytokine measurement in cell-free peritoneal lavage. After mice were euthanized, 5 mL of PBS was injected into the peritoneal cavity and the diluted peritoneal fluid containing the cells was then retrieved. […] Cytokine concentration was assessed by ELISA kit in the peritoneal fluid (ThermoFisher, Mouse IL-1β, IL6 and TNFalpha Uncoated ELISA). […] The optical density was read with the Clariostar Plus Microplate Reader (BMG LABTECH), through the Clario software. Concentrations were calculated from a standard curve according to the manufacturer's protocol. Phenotypic study of immune cells from the peritoneal cavity assessed by flow cytometry. The pelleted peritoneal cells were resuspended in PBS-2% FBS and counted. […] All data were collected on LSR Fortessa flow cytometer (BD Bioscience, USA) and analyzed with FlowJo software. […]
A general note: ELISA stands for enzyme-linked immunosorbent assay.

In test [2] the test system is cell surface markers CD80, Ly6C, CD206, CXCR4, CCR2. The experiment in a line: Endometriosis mouse model, cell surface marker expression of peritoneal immune cells (flow cytometry). The test is classed as in vivo. Conditions: 50 mg/kg/day, 5 times a week, 6 weeks. As to the method: Experimental design. Balb/C female mice (10 weeks old) were habituated for 3 days to take a jelly containing (group EDT+2,4D) or not (groups No EDT and EDT+Vehicle) the compound. Surgical implantation of endometrial tissue from syngenic female in peritoneum, was performed at day 0 for groups EDT+Vehicle and EDT+2,4D. […] The vehicle or treatment was then given 5 times a week (50 mg/kg/day) during 6 weeks. Mice were then sacrificed and the peritoneal inflammation was assessed. All the details of the protocol are depicted in FIG. 27. Cytokine measurement in cell-free peritoneal lavage. After mice were euthanized, 5 mL of PBS was injected into the peritoneal cavity and the diluted peritoneal fluid containing the cells was then retrieved. The cells were pelleted by centrifugation at 500×g 4° C. and the supernatant (cell-free peritoneal fluid) was frozen at −80° C. for subsequent cytokine concentration measurement by ELISA. Cytokine concentration was assessed by ELISA kit in the peritoneal fluid (ThermoFisher, Mouse IL-1β, IL6 and TNFalpha Uncoated ELISA). […] The optical density was read with the Clariostar Plus Microplate Reader (BMG LABTECH), through the Clario software. Concentrations were calculated from a standard curve according to the manufacturer's protocol. Phenotypic study of immune cells from the peritoneal cavity assessed by flow cytometry. The pelleted peritoneal cells were resuspended in PBS-2% FBS and counted. One million cells were stained with the following fluorophore-conjugated antibodies purchased from BioLegend: CD45 BV510, CD11b APC-Cy7, CD11c PE, F4/80 BV711, CD80 PE Cy5, CD206 AF647, Ly-6C, PE-Cy7, CCR2 BV786 et CXCR4 BV421, CD45R/B220 PE Texas-Red, CD3E FITC, NK1.1 BV605 and CD69 PerCP-Cy5.5, Zombie-UV. Cells were incubated 20 min in the dark at 4° C., washed with PBS-2% FBS, and were fixed with paraformaldehyde 4% in 5 mL round-bottom polystyrene tubes (Falcon™ 352054). Compensation was adjusted with Ultracomp beads (ThermoFisher). All the antibodies were diluted at 1/200. All data were collected on LSR Fortessa flow cytometer (BD Bioscience, USA) and analyzed with FlowJo software. Statistical analysis. Outlier values farther than 2 standard deviation from the mean were not taken into account. Kruskal Wallis non-parametric test followed by Dunn's multiple comparisons test were performed for cytokines, One-Way Anova with Tukey's multiple comparisons test for flow cytometry data. *p<0.05, **p<0.01, ***p<0.001.

On to `COc1cc(O)c(OC)c(O)c1C(=O)/C=C/c1ccccc1` [2,4-D, 2′,4′-dihydroxy-3′,6′-dimethoxychalcone], for which, in the test with IL-23, the “concentration of IL-23 protein in the culture supernatant” value was “significantly inhibited”. For the same compound, the median graft survival in test [1] (2 mg/kg) amounted to 15 days. The same compound yielded a median graft survival in test [1] (10 mg/kg) of 19 days. This compound had a median graft survival in test [1] (50 mg/kg) of 24 days. The “concentration of IL1-β, IL-6 and TNF-α in peritoneal lavage” value in the test with IL-1β, IL6 and TNFalpha was “tended to normalize”. In test [2], the CCR2 entry is reported as “significantly reduced”, the CXCR4 entry was “tended to decrease”, the Ly6C pro-inflammatory marker entry is “tended to decrease” and the “anti-inflammatory CD206 marker” value is recorded as “did not reduce”.
